The values that follow come from the supplement of paper PMC10307832.

What all share (assay): relative viability (nuclei count vs DMSO), 5 days (fraction); higher = more cells survive
Compound in the test “Tanzisertib + Vorinostat”: O[C@H]1CC[C@H](Nc2ncc3nc(Nc4c(F)cc(F)cc4F)n([C@H]4CCOC4)c3n2)CC1 [Tanzisertib] + O=C(CCCCCCC(=O)Nc1ccccc1)NO [Vorinostat] (partner 1 µM)
In a few lines: (§1)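 Nuclei were stained with Hoechst during a one-step fixation (final 0.05% Triton X-100, 1% formaldehyde, 1 ug/ml Hoechst) carried out 5 days after dosing, then counted on 4× images. The cells, lung cancer lines in 1536-well plates, had been dosed by pin tool the day after seeding with one drug alone or a fixed anchor-drug dose plus five library-drug doses (not always all listed) in √10 steps. Relative viability is the nuclei count in treated wells divided by that in vehicle wells, and each value is the median of duplicate plates.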

Compound in test [1]: C1CNCCC1C2=CC(=NN2)C3=CC=NC=C3 + CCNC(=O)c1noc(-c2cc(C(C)C)c(O)cc2O)c1-c1ccc(CN2CCOCC2)cc1 [Luminespib] (partner 0.01 µM)
Put shortly:
as §1

Compound in test [2]: C[C@@H](N)c1ccc(C(=O)Nc2ccnc3[nH]ccc23)cc1 + O=C(CCCCCCC(=O)Nc1ccccc1)NO [Vorinostat] (partner 1 µM)
Put shortly:
as §1

Compound in the test “Tanzisertib + Pictilisib”: O[C@H]1CC[C@H](Nc2ncc3nc(Nc4c(F)cc(F)cc4F)n([C@H]4CCOC4)c3n2)CC1 [Tanzisertib] + CS(=O)(=O)N1CCN(Cc2cc3nc(-c4cccc5[nH]ncc45)nc(N4CCOCC4)c3s2)CC1 [Pictilisib] (partner 1 µM)
In a few lines:
as §1

Regarding RERF-LC-KJ, the relative viability with Tanzisertib + Vorinostat (first compound 0.08 µM) came to 0.779; with Tanzisertib + Vorinostat (first compound 0.253 µM), 0.712; with Tanzisertib + Vorinostat (first compound 0.8 µM), 0.743; with Tanzisertib + Vorinostat (first compound 2.53 µM), 0.573; in the test with Tanzisertib + Vorinostat (first compound 8 µM), 0.56; in test [1] (first compound 0.08 µM) it was 1.14. The relative viability in test [1] (first compound 0.8 µM) came to 1.3; in test [1] (first compound 2.53 µM), 1.45; in test [1] (first compound 8 µM), 1.42; in test [2] (first compound 0.04 µM), 0.737; in test [2] (first compound 0.1265 µM), 0.736; in test [2] (first compound 0.4 µM), 0.838. The relative viability in test [2] (first compound 1.265 µM) stood at 0.652; in test [2] (first compound 4 µM), 0.74; with Tanzisertib + Pictilisib (first compound 0.08 µM) it was 0.634; with Tanzisertib + Pictilisib (first compound 0.253 µM), 0.606; with Tanzisertib + Pictilisib (first compound 0.8 µM) it was 0.571; with Tanzisertib + Pictilisib (first compound 2.53 µM), 0.511. In addition, in the test with Tanzisertib + Pictilisib (first compound 8 µM), the relative viability was determined as 0.458.
Regarding SK-LU-1, the relative viability with Tanzisertib + Vorinostat (first compound 0.08 µM) stood at 0.848; in the test with Tanzisertib + Vorinostat (first compound 0.253 µM), 0.824; in the test with Tanzisertib + Vorinostat (first compound 0.8 µM) it was 0.734; in the test with Tanzisertib + Vorinostat (first compound 2.53 µM), 0.9; with Tanzisertib + Vorinostat (first compound 8 µM), 0.828; in test [1] (first compound 0.08 µM), 0.204. The relative viability in test [1] (first compound 0.8 µM) amounted to 0.209; in test [1] (first compound 2.53 µM) it was 0.206; in test [1] (first compound 8 µM) it was 0.212; in test [2] (first compound 0.04 µM), 0.776; in test [2] (first compound 0.1265 µM), 0.767; in test [2] (first compound 0.4 µM), 0.696. The relative viability amounted to 0.671 in test [2] (first compound 1.265 µM); 0.522 in test [2] (first compound 4 µM); 0.58 with Tanzisertib + Pictilisib (first compound 0.08 µM); 0.539 with Tanzisertib + Pictilisib (first compound 0.253 µM); 0.565 with Tanzisertib + Pictilisib (first compound 0.8 µM); 0.633 with Tanzisertib + Pictilisib (first compound 2.53 µM). Moreover, in the test with Tanzisertib + Pictilisib (first compound 8 µM), the relative viability came out at 0.527.
SK-MES-1: the relative viability in the test with Tanzisertib + Vorinostat (first compound 0.08 µM) worked out at 1.27; with Tanzisertib + Vorinostat (first compound 0.253 µM), 1.1; in the test with Tanzisertib + Vorinostat (first compound 0.8 µM), 1.04; with Tanzisertib + Vorinostat (first compound 2.53 µM), 1.07; in the test with Tanzisertib + Vorinostat (first compound 8 µM), 0.78; in test [1] (first compound 0.08 µM) it was 0.716. For the same cell line, the relative viability turned out to be 0.82 in test [1] (first compound 0.8 µM); 0.736 in test [1] (first compound 2.53 µM); 0.613 in test [1] (first compound 8 µM); 1.04 in test [2] (first compound 0.04 µM); 1.05 in test [2] (first compound 0.1265 µM); 1.11 in test [2] (first compound 0.4 µM). Further, the relative viability amounted to 1.2 in test [2] (first compound 1.265 µM); 1.17 in test [2] (first compound 4 µM); 0.378 in the test with Tanzisertib + Pictilisib (first compound 0.08 µM); 0.338 with Tanzisertib + Pictilisib (first compound 0.253 µM); 0.366 with Tanzisertib + Pictilisib (first compound 0.8 µM); 0.34 with Tanzisertib + Pictilisib (first compound 2.53 µM). In addition, the relative viability with Tanzisertib + Pictilisib (first compound 8 µM) was 0.245.
As for SW 1573, the relative viability with Tanzisertib + Vorinostat (first compound 0.08 µM) is 1.21; with Tanzisertib + Vorinostat (first compound 0.253 µM), 0.666; with Tanzisertib + Vorinostat (first compound 0.8 µM), 0.72; with Tanzisertib + Vorinostat (first compound 2.53 µM), 1.04; in the test with Tanzisertib + Vorinostat (first compound 8 µM), 0.566; in test [1] (first compound 0.8 µM) it was 0.215. In addition, the relative viability was found to be 0.244 in test [1] (first compound 2.53 µM); 0.189 in test [1] (first compound 8 µM); 0.652 in test [2] (first compound 0.04 µM); 0.669 in test [2] (first compound 0.1265 µM); 0.638 in test [2] (first compound 0.4 µM); 0.428 in test [2] (first compound 1.265 µM). In addition, the relative viability in test [2] (first compound 4 µM) turned out to be 0.592; in the test with Tanzisertib + Pictilisib (first compound 0.08 µM), 0.63; with Tanzisertib + Pictilisib (first compound 0.253 µM), 0.373; in the test with Tanzisertib + Pictilisib (first compound 0.8 µM), 0.481; with Tanzisertib + Pictilisib (first compound 2.53 µM) it was 0.584; in the test with Tanzisertib + Pictilisib (first compound 8 µM), 0.505.
